# Source: patent US20020052377A1, “Method for treating angina” (priority 2000, published 2002)
# Tests used:
# Assay type in all cases: in vivo, human
# [1] = system: patients with chronic angina, with or without history of heart failure; assay: MARISA exercise duration, patients with or without history of heart failure (HF)
# Experimental: This Example evaluates the effectiveness of ranolazine (Ran) in human patients with chronic angina and a history of heart failure. The […] (Monotherapy Assessment of Ranolazine In Stable Angina) study randomized patients to Ran (500 mg, 1000 mg and 1500 mg bid) and placebo in a double-blind, 4 period, crossover design study. […] All patients performed a modified Bruce exercise test at the time of trough (morning) and peak (afternoon) drug levels on each treatment.
# [2] = system: patients with angina, with or without diabetes; assay: MARISA exercise duration, diabetic (DM) vs non-DM patients
# Experimental: In this Example, ranolazine (Ran) was administered to two sets of human subjects. The first set of subjects were suffering from angina alone while the second set of subjects were suffering from angina and diabetes. The […] (Monotherapy Assessment of Ranolazine in Stable Angina) study randomized patients to Ran (500 mg, 1000 mg and 1500 mg bit) and placebo in a double-blind, 4 period crossover study. All patients performed a modified Bruce exercise test at the time of trough and peak drug levels on each treatment; 42 patients with DM were compared to 133 non-DM patients.
# [3] = system: patients with chronic stable angina pectoris; assay: Exercise treadmill test (ETT), IR ranolazine.2HCl, placebo-controlled crossover (Example 3); conditions: for Time to onset angina (mean) / Exercise Duration (mean) / Time to 1 mm ST depression (mean): all patients
# Experimental: In this Example, the safety and anti-ischemic effects of high plasma ranolazine levels in a large group of angina patients was evaluated and the duration of any effects during steady-state dosing with bid and tid regimens was assessed. In this Example, patients with chronic stable angina pectoris who were responsive to conventional antianginal drugs were treated with 3 ranolazine.2HCl dosing regimens: 267 mg tid, 400 mg bid and 400 mg tid IR Formulations of Example 1. Exercise testing parameters and ranolazine free base concentrations were determined at peak and trough plasma levels.
# The study involved double-blind, placebo-controlled randomized treatment phase with 4 treatments (placebo, ranolazine.2HCl 400 mg bid, ranolazine.2HCl 267 mg tid, and ranolazine.2HCl 400 mg tid), 4 treatment sequences and 5 double-blind treatment periods in an extended period Latin square design on pre-qualified patients who were responsive to known antianginal therapy and had stable exercise times.
# Human patients with chronic stable angina pectoris, of at least 3 months' duration, that had responded to conventional antianginal therapy were considered candidates. In addition, patients had to have electrocardiogrpahic (ECG) evidence of exercise-induced ischemia based upon horizontal or down-sloping ST-segment depression of ≧1 mm that persisted in 3 consecutive beats during an exercise stress test and an ECG pattern that would not interfere with interpretation of ST-segment changes. The latter criterion specifically excluded patients with left ventricular hypertrophy, pre-excitation, conduction abnormalities, or pacemaker rhythm. Other exclusion criteria included unstable angina or myocardial infarction within the preceding 3 months, heart failure defined as New York Heart Association Class HI or IV, significant valvular or congenital heart disease that was uncorrected, need for digoxin or long-acting nitrate therapy, labile diabetes mellitus, or other serious conditions that would confuse follow-up evaluation.
# These immediate release ranolazine.2HCl dosing regimens (267 mg tid, 400 mg bid, 400 mg tid) and a placebo were administered during the treatment phase. Patients took one capsule containing either 267 mg or 400 mg of ranolazine dihydrochloride, or placebo at 8:00 a.m., 4:00 p.m., 8:00 p.m. and 12:00 a.m. All capsules were identical in appearance. Patients were randomized to 1 of 4 treatment sequences, with 25% of the patients assigned to each sequence. Each treatment was administered for 1 week, with one treatment repeated during a fifth 1 week period.
# To qualify patients receiving their usual antianginal medications underwent a screening exercise treadmill test (ETT-1) using a Sheffield modified Bruce protocol. If the time to onset angina was […], an antianginal drug was withdrawn and treatment with single-blind placebo was initiated. After 1 to 2 weeks, patients returned for another ETT (ETT-2). If the time to onset angina decreased by 1 minute compared with ETT-1, the patient was considered to have completed the first qualifying ETT. If the decrease in time to onset angina was not ≧1 minute, a second antianginal drug could be withdrawn and the above sequence repeated. If necessary, a third antianginal drug could be withdrawn according to this procedure in order for the patient to qualify. Long-acting nitrates were always withdrawn first; beta-blockers; and calcium antagonists could be withdrawn in either order from patients not receiving long-acting nitrates. After the patient achieved the first qualifying ETT (ETT-2), a second qualifying ETT (ETT-3) was performed in which the time to onset angina had to be within i 15% of that observed during ETT-2. In addition, each of the qualifying ETTs had to have ECG signs of ischemia (≧1 mm horizontal or down-sloping ST-segment depression in 3 consecutive beats). Patients meeting these criteria were used in the study. […]
# [4] = Peak, ranolazine.2HCl IR 267 mg tid
# [5] = Peak, ranolazine.2HCl IR 400 mg bid
# [6] = Peak, ranolazine.2HCl IR 400 mg tid
# [7] = Trough, ranolazine.2HCl IR 267 mg tid
# [8] = Trough, ranolazine.2HCl IR 400 mg bid
# [9] = Trough, ranolazine.2HCl IR 400 mg tid
smiles,measurement,setting,value
"COc1ccccc1OCC(O)CN1CCN(CC(=O)Nc2c(C)cccc2C)CC1 (racemic) [Ranolazine, (±)-N-(2,6-dimethylphenyl)-4-[2-hydroxy-3-(2-methoxyphenoxy)propyl]-1-piperazine-acetamide]",LS mean ED,"[1]; HF n=29, 500 mg bid, peak",518 s
same,LS mean ED,"[1]; HF n=29, 500 mg bid, trough",512 s
same,LS mean ED,"[1]; HF n=29, 1000 mg bid, peak",520 s
same,LS mean ED,"[1]; HF n=29, 1000 mg bid, trough",514 s
same,LS mean ED,"[1]; HF n=29, 1500 mg bid, peak",545 s
same,LS mean ED,"[1]; HF n=29, 1500 mg bid, trough",524 s
same,LS mean ED,"[1]; No HF n=146, 500 mg bid, peak",538 s
same,LS mean ED,"[1]; No HF n=146, 500 mg bid, trough",539 s
same,LS mean ED,"[1]; No HF n=146, 1000 mg bid, peak",563 s
same,LS mean ED,"[1]; No HF n=146, 1000 mg bid, trough",551 s
same,LS mean ED,"[1]; No HF n=146, 1500 mg bid, peak",564 s
same,LS mean ED,"[1]; No HF n=146, 1500 mg bid, trough",563 s
same,Ls mean ED,"[2]; DM n = 42, 500 mg bid, peak",527 s
same,Ls mean ED,"[2]; DM n = 42, 500 mg bid, trough",520 s
same,Ls mean ED,"[2]; DM n = 42, 1000 mg bid, peak",550 s
same,Ls mean ED,"[2]; DM n = 42, 1000 mg bid, trough",526 s
same,Ls mean ED,"[2]; DM n = 42, 1500 mg bid, peak",547 s
same,Ls mean ED,"[2]; DM n = 42, 1500 mg bid, trough",530 s
same,Ls mean ED,"[2]; Non-DM n = 133, 500 mg bid, peak",530 s
same,Ls mean ED,"[2]; Non-DM n = 133, 500 mg bid, trough",528 s
same,Ls mean ED,"[2]; Non-DM n = 133, 1000 mg bid, peak",550 s
same,Ls mean ED,"[2]; Non-DM n = 133, 1000 mg bid, trough",539 s
same,Ls mean ED,"[2]; Non-DM n = 133, 1500 mg bid, peak",557 s
same,Ls mean ED,"[2]; Non-DM n = 133, 1500 mg bid, trough",544 s
same,Time to onset angina (mean),"[3]; Peak (1 hour after dose), ranolazine.2HCl IR 267 mg tid",9.40 min
same,Time to onset angina (mean),"[3]; Peak (1 hour after dose), ranolazine.2HCl IR 400 mg bid",9.33 min
same,Time to onset angina (mean),"[3]; Peak (1 hour after dose), ranolazine.2HCl IR 400 mg tid",9.33 min
same,Exercise Duration (mean),[3]; [4],10.87 min
same,Time to 1 mm ST depression (mean),[3]; [4],9.99 min
same,Exercise Duration (mean),[3]; [5],10.83 min
same,Time to 1 mm ST depression (mean),[3]; [5],9.86 min
same,Exercise Duration (mean),[3]; [6],10.84 min
same,Time to 1 mm ST depression (mean),[3]; [6],9.94 min
same,Time to onset angina (mean),"[3]; Trough (approx. 8 hours after dosing), ranolazine.2HCl IR 267 mg tid",8.78 min
same,Time to onset angina (mean),"[3]; Trough (approx. 8 hours after dosing), ranolazine.2HCl IR 400 mg bid",8.77 min
same,Time to onset angina (mean),"[3]; Trough (approx. 8 hours after dosing), ranolazine.2HCl IR 400 mg tid",8.65 min
same,Exercise Duration (mean),[3]; [7],10.56 min
same,Time to 1 mm ST depression (mean),[3]; [7],9.22 min
same,Exercise Duration (mean),[3]; [8],10.55 min
same,Time to 1 mm ST depression (mean),[3]; [8],9.22 min
same,Exercise Duration (mean),[3]; [9],10.60 min
same,Time to 1 mm ST depression (mean),[3]; [9],9.31 min
same,threshold plasma ranolazine free base concentration for anti-ischemic activity detected during ETT,[3]; estimated from peak and trough results,above 550 ng per mL
same,"prolongation of time to onset of angina, duration of exercise and time to 1-mm ST-segment depression over placebo, on average","[3]; peak plasma concentrations, three dosing regimens",about 0.33 minutes
